Source: patent US20130052654A1, “Amyloid Precursor Protein E2 Domain and Uses Thereof” (Leibniz Institute For Age Research - Fritz Lipmann …, priority 2011, published 2013)
Several values for one entry are separate records, joined by “and”; a condition that tells them apart may be missing. Equal values may be shown once. Read-outs that look alike come from different tables or passages of the source. Marks after values point to notes of the source that are not given here.

How the values were obtained:
[1] = molecular target: T1, APP-E2 (Homo sapiens, UniProt P05067); test: Metal retention assay (ultrafiltration); type: binding; conditions: 50 μM APP-E2, 75 μM metal, concentrated 8-fold
T1 construct: APP-E2 comprising Ser295-Asp500 (numbering according to APP695); hexa-histidine tag (C, cleaved yes); made in house; host or cells: E. coli BL21(DE3)pRIL
Description: 50 μM APP-E2 (without His-tag) and 75 μM CuCl2 in 50 mM Tris/HCl pH 7.3, 150 mM NaCl or 75 μM ZnCl2 in 20 mM Hepes/NaOH pH 7.3, 150 mM NaCl was concentrated 8-fold at 20° C. using Vivaspin 500 ultrafiltration devices with 5.000 MWCO PES membranes (Sartorius stedim biotech). Samples without protein, or containing 50 μM lysozyme instead of APP-E2, served as controls. Metal ions in the retenate were quantified by a spectrophotometric method (Sabel et al., 2010). Each experiment was performed in triplicate and the average ratio of the change in concentration relative to the starting concentration (c-c0/c0) was plotted.

[2] = molecular target: T1, APP-E2; test: Limited proteolysis with Trypsin; type: biochemical; conditions: 40 μM metal, 20 μM protein, 0.5 μg/ml Trypsin
Description: Limited proteolysis was performed in 20 mM HEPES, 150 mM NaCl at pH 7.4 containing 0.5 μg/ml Trypsin (Calbiochem) and 20 μM purified protein (α-casein as control). Copper or zinc were supplemented at 40 μM to the Samples. Reactions were stopped after 30 and […] by addition of 10 mM PMSF and analyzed by SDS-PAGE. Protease cleavage sites were characterized by Edman sequencing (Procise 494A, Applied Biosystems, Foster City, Calif., USA). Limited proteolysis results shown were reproduced in three independent experiments.

[3] = molecular target: T1, APP-E2; test: Isothermal titration calorimetry (ITC) of metal binding to APP-E2; conditions: for n1: ITC stoichiometry, first site; for dH1: Cu in Tris, Zn in Hepes, pH 7.3
Description: ITC was performed at the same conditions as the metal retention assays in a NANO ITC calorimeter (TA Instruments, USA) adding 0.4 mM CuCl2 in 6 μl injections or 0.4 mM ZnCl2 in 11 μl injections to the cell containing 40 μM protein. Blank enthalphies for titrations of metals in buffer were subtracted from peak integrals. Binding constants were calculated with the NanoAnalyze program (TA Instruments, USA) using a model for a single set of identical binding sites in the case of copper binding. In the case of zinc binding the enthalpic data were fitted to a binding model representing two sets of independent binding sites, accounting for 1 strong binding site and 3.3 weak binding sites (4.3 total Zn^2+ sites) per protein molecule (for further details see supplementary data). All titrations were performed in triplicate. The initially determined KDapp of the APP-E2/Cu complex had to be corrected for competition with the copper ligand Tris (Hatcher et al., 2008) and its pH-dependent protonation. The exact coordination chemistry of Cu^2+ by Tris is, unfortunately, not precisely known, e.g. tertiary Cu(Tris)2 and quinary Cu(Tris)4 complexes are described in the literature. However, all models agree about the formation of a binary Tris-Cu^2+ complex, described by a formation constant pK1(Tris) of ˜4. The corrected KD was calculated according to KD=KDapp(1+ cTris×10^pK^1(Tris)/(1+10^−pH×Ka))^−1 using pK1(Tris)=3.82 (Canepari et al., 1999) and pKa(Tris)=8.1.
The effect of excessive zinc to protein ratios was studied in ITC experiments in three repeating titrations into the same cell solution. Titration was performed in 20 mM Hepes/NaOH pH 7.3, 150 mM NaCl at 20° C., adding a 0.8 mM ZnCl2 solution in 3×22 injections to 40 μM APP-E2, resulting in a final Zn^2+/protein ratio of 22. The molar ratios for titration experiment 2 and 3 were calculated neglecting intermixture of cell volume and slight volume changes occurring after refill of the syringe. Blank enthalphies for titrations of metals in buffer were subtracted from peak integrals.

[4] = molecular target: T1, APP-E2; test: CD-spectroscopy melting curves of APP-E2 at 222 nm; type: binding; conditions: 7.5 μM APP-E2, 10 μM metal; inflection point of CD melting curve at 222 nm
Description: CD-data were collected on a J-710 spectropolarimeter (Jasco Corporation) in the same buffers used for ITC binding studies adding 7.5 μM APP-E2 and 10 μM zinc or copper. CD-signals were measured at 222 nm upon heating (1° C./min) of the samples from 20° C. to 90° C. The blank signals produced by the buffers at 20° C. were subtracted as constant values from the melting curves. Indicated melting points correspond to the inflection points of the melting curves determined from the peak of the 1st order derivative calculated using spectra analysis software (Jasco Corporation).

[5] = molecular target: T2, full length APP (Homo sapiens, UniProt P05067); conditions: cited from earlier work
T2 construct: previously reported for full length APP (0.75 μM) (Bush et al., 1993)

[6] = molecular target: T1, APP-E2; test: Determination of total Zn2+ binding sites on APP-E2
Description: The protein was saturated with 10 mM ZnCl2 in 20 mM Hepes/NaOH pH 7.3, 150 mM NaCl resulting in quantitative precipitated of the protein. The precipitate was washed with buffer until a stable equilibrium ratio of zinc saturated protein in the liquid phase and the solid phase was reached. The concentration of Zn (Sabel et al., 2010) and protein (Bradford, 1976) were determined after each wash step in the liquid phase (supernatant) after […] centrifugation at 16,000 g. The ratio between [Zn^2+] and [APP-E2] at equilibrium conditions corresponds to the total number of zinc binding sites per protein molecule, which was determined to be 4.3+/−0.2 (FIG. 10B). Subtraction of one strong intra-molecular binding site yields the number of intermolecular binding sites of as 3.3.

[7] = molecular target: T1, APP-E2; test: GPC and GPC coupled SLS, oligomerization state with heparin; type: binding; conditions: 50 μM APP-E2, 100 μM heparin; for MWSLS of APP-E2: GPC coupled SLS, absolute molecular weight; for MWrh of APP-E2: GPC, apparent molecular weight
Description: Analytical GPC and SLS studies were performed in 150 mM NaCl, 10 mM Sodium phosphate buffer, pH 7.3, on a calibrated (MWGF70, Sigma) Superdex200 10/300 GL column (GE Healthcare) using 50 μM APP-E2. Where applicable, a ˜3.6 kDa heparin preparation (Reviparin-Sodium, Abott) was added at 100 μM to the protein and the buffer. SLS data were recorded using VE 3580 RI and 270 Dual detectors (Viscotek, USA) and analyzed using software provided by the manufacturer. Given data represent average values±standard deviation of three independent experiments.

[8] = molecular target: the molecule itself; test: gel permeation chromatography and GPC-coupled static light scattering, without and with low molecular weight heparin (self-association test)
Description: All intermolecular contacts identified in the crystals analysed with the PISA server (Krissinel and Henrick, 2007) result from crystal packing, evidenced by the calculated complexation significance scores (CSS) that are equal to 0. Consequently, the protomer contacts are predominantly stabilized by the intermolecular coordinated cadmium ions. […] To investigate this observation further, the apparent molecular weight was determined based on the hydrodynamic radius (MWᵣₕ) using gel permeation chromatography (GPC) as well as the absolute molecular weight (MWSLS) employing GPC coupled static light scattering (SLS; Supplementary Figure S2). […] The influence of heparin on the oligomerization state of the E2 domain, which was described to promote dimer formation (Lee et al., 2011), was tested.

T2 sequence (P05067 18-770, species assumed): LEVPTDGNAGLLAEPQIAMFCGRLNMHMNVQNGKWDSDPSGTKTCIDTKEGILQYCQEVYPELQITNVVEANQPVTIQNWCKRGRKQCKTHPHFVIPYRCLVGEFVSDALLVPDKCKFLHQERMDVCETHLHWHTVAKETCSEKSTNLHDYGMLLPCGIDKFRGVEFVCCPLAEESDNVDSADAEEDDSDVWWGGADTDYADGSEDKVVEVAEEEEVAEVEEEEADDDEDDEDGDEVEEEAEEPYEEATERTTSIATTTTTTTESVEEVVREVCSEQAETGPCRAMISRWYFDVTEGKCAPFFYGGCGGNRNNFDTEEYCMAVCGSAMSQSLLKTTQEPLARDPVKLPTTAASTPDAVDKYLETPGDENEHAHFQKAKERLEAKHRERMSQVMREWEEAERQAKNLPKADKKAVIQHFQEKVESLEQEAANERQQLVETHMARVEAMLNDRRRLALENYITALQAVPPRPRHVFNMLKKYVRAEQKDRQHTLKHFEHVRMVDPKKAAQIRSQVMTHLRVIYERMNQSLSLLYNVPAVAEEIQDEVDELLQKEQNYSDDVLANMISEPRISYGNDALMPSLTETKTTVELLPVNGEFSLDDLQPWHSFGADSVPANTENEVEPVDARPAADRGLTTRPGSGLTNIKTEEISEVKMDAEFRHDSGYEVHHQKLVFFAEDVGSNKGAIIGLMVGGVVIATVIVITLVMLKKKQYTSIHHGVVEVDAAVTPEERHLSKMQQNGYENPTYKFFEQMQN

Q: Which “retention of metal ions upon APP-E2 concentration” value [1] does the source give for `[Cu+2]` [Cu^2+, copper] here?
A: accumulated in the retenate

Q: What about the “effect on Trypsin cleavage of APP-E2” value [2] of the same molecule?
A: stabilizes especially fragment 1

Q: What about the n1 [3] of the same molecule?
A: 0.70 ± 0.03

Q: What about the dH1 ([3]; ITC) of the same molecule?
A: -19.9 ± 0.9 kJ/mol

Q: And the Kd ([3]; intersection point with the ordinate, 15-75 mM Tris, read-out: KD from linear extrapolation of apparent KD as function of Tris concentration)?
A: ~0.02 µM

Q: And the Kd ([3]; minimal model of a Cu2+-Tris 1:1 complex, upper (weakest) limit, listed as copper, read-out: KD corrected for Tris competition)?
A: ≤ 0.013 µM

Q: And the Kd ([3]; minimal model of a Cu2+-Tris 1:1 complex, upper (weakest) limit, read-out: KD corrected for Tris competition)?
A: < 0.013 µM

Q: And the “melting temperature of APP-E2” value [4]?
A: 61.0±0.0 °C

Q: And the Kd ([5]; Hesse et al., 1994, read-out: dissociation constant for full length APP (copper))?
A: 0.01 µM

Q: For `[Zn+2]` [Zn^2+, zinc], which “retention of metal ions upon APP-E2 concentration” value [1] is on record?
A: accumulated in the retenate

Q: And the “effect on Trypsin cleavage of APP-E2” value [2]?
A: Trypsin cleavage at Arg385 completely disappeared

Q: And the “total number of zinc binding sites per protein molecule” value ([6]; ratio [Zn2+]/[APP-E2] at equilibrium after wash steps)?
A: 4.3+/−0.2 and 4.3

Q: And the “number of weak (intermolecular) zinc binding sites” value ([6]; total minus one strong intramolecular site)?
A: 3.3

Q: What about the “exothermic zinc binding reaction with copper pre-saturated APP-E2” value ([3]; ITC competition) of the same molecule?
A: completely missing

Q: What about the n1 [3] of the same molecule?
A: 0.7 ± 0.2

Q: And the Kd ([3]; ITC, 20 mM Hepes/NaOH pH 7.3, 150 mM NaCl, two sets of independent sites, strong site, listed as zinc, read-out: KD1, Zn-APP-E2)?
A: ≤ 3.9 µM

Q: What about the Kd ([3]; ITC, 20 mM Hepes/NaOH pH 7.3, 150 mM NaCl, two sets of independent sites, strong site, read-out: KD1, Zn-APP-E2) of the same molecule?
A: 3.9 ± 1.5 µM

Q: What about the Kd ([3]; ITC, Hepes pH 7.3, weak sites, not statistically significant in curve fit, listed as zinc, read-out: KD2, Zn-APP-E2) of the same molecule?
A: ≤ 2600 µM

Q: What about the Kd ([3]; ITC, Hepes pH 7.3, weak sites, not statistically significant in curve fit, read-out: KD2, Zn-APP-E2) of the same molecule?
A: 2600 µM

Q: What about the dH1 ([3]; ITC) of the same molecule?
A: -16.6 ± 0.6 kJ/mol

Q: What about the n2 ([3]; weak sites, determined independently and fixed during curve fit) of the same molecule?
A: 3.3^b

Q: And the “melting temperature of APP-E2” value [4]?
A: 64.2±0.3 °C

Q: What about the Kd ([5]; Bush et al., 1993, read-out: dissociation constant for full length APP (zinc)) of the same molecule?
A: 0.75 µM

Q: For Reviparin-Sodium [HP], which “MWSLS of APP-E2” value [7] is on record?
A: 31.6 ± 0.2 kDa

Q: And the “MWSLS of APP-E2” value ([7]; listed as Clivarin)?
A: 31.6 kDa

Q: And the “MWrh of APP-E2” value [7]?
A: 39.2 ± 0.4 kDa

Q: And the “MWrh of APP-E2” value ([7]; listed as Clivarin)?
A: 39.2 kDa

B1: APP-E2 comprising Ser295-Asp500 (numbering according to APP695) (other)
chain: STPDAVDKYLETPGDENEHAHFQKAKERLEAKHRERMSQVMREWEEAERQAKNLPKADKKAVIQHFQEKVESLEQEAANERQQLVETHMARVEAMLNDRRRLALENYITALQAVPPRPRHVFNMLKKYVRAEQKDRQHTLKHFEHVRMVDPKKAAQIRSQVMTHLRVIYERMNQSLSLLYNVPAVAEEIQDEVDELLQKEQNYSDD
notes: The C-terminal His tag was cleaved for the biochemical studies; also called E2 domain; human APP-E2 domain; not shown: a few non-native C-terminal residues left after the hexa-histidine tag was cleaved off (factor Xa or V8 protease); their
Q: Does B1 bind [8]?
A: no binding (tested: 50 µM APP-E2)
